The values that follow come from ChEMBL document CHEMBL1133847, “Fipronil-based photoaffinity probe for Drosophila and human beta 3 GABA receptors” (Bioorg Med Chem Lett, 2001).

For this experiment, the target named is T1, Gamma-aminobutyric acid receptor subunit beta-3 (Homo sapiens, UniProt P28472).
T1 sequence (P28472 whole entry): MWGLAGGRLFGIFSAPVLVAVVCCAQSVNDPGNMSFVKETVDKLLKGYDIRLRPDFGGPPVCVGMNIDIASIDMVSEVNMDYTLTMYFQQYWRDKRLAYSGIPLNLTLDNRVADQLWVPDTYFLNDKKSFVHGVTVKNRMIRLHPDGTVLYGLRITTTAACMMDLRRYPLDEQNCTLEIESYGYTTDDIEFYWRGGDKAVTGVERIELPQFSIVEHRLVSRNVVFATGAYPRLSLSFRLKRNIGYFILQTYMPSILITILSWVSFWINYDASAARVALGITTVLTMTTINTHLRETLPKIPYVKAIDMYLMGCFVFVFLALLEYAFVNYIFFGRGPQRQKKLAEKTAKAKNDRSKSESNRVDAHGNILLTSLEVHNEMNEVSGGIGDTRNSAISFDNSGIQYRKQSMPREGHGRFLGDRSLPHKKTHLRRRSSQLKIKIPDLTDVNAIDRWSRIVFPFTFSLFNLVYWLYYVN
Briefly: Inhibition of [3H]EBOB binding to human GABA-A receptor beta3 subunit (range 1-28).

In the case of `N#Cc1nn(-c2c(Cl)cc(C(F)(F)F)cc2Cl)c(N)c1[S+]([O-])C(F)(F)F` (configuration not stated) [FIPRONIL], the IC50 was found to be 28 nM.
As for `FC(F)(F)c1cc(Cl)c(-n2cc(C3(C(F)(F)F)N=N3)cn2)c(Cl)c1`, the figure is 28 nM.
